One block for each molecule: values may come before it.
Key:
[1] = target: HsCDK2/cyclin A (Homo sapiens, UniProt P24941); experiment: Radiometric Flashplate potency assay, HsCDK2/cyclin A; assay type: biochemical; conditions: for ratio HsCDK2/TbGSK3: ratio of IC50 values; for IC50: average of two or more experiments, 1 μM ATP
Protocol: (§1) For compound potency determinations, a radiometric 96-well Flashplate assay (PerkinElmer) was adopted. Compounds were solubilized in DMSO at a top concentration of 3 mM and serially diluted to achieve 10-point titration of final assay concentrations from 30 μM to 0.3 nM with a final DMSO concentration of 1% (v/v). The reaction mixtures contained 1 μM biotinylated GSP2 substrate, 1 μM ATP, 3.7 KBq/well [γ-33P]-ATP and 2.5 nM TbGSK3 in the TbGSK3 kinase assay buffer. GSK3 inhibitors were screened for selectivity assessment also against HsGSK3β. For HsGSK3 assay, the reaction mixes contained 1 μM biotinylated GSP2 substrate, 2 μM ATP, 7.4 KBq/well [γ-33P]-ATP and 15 nM HsGSK3β in the TbGSK3 kinase assay buffer (25 mM Tris-HCl, pH 7.5, 10 mM MgCl2, 5 mM DTT, 0.02% CHAPS, 2 U/mL heparin). For HsCDK2/cyclin A assay, the reaction mixtures contained 1 mM CDK5 biotinylated peptide substrate (Biotin-C6-PKTPKKAKKL), 1 μM ATP, 7.4 KBq/well [γ-^33P]-ATP and 2 nM HsCDK2/cyclin A in the kinase assay buffer (50 mM Tris-HCl, pH 7.5, 10 mM MgCl2, 2 mM DTT, 100 mM NaCl, 0.2 mM EGTA, 0.02% (v/v) Brij35).
For the HsCDK2 assay, the analysis was performed using two different standards (GW8510 and staurosporine) tested respectively five times in a single run and 19 times in 2 independent runs. This implies that a difference of >0.3 in pIC50 can be considered statistically significant for this assay.

[2] = target: HsGSK3β (Homo sapiens, UniProt P49841); experiment: Radiometric Flashplate potency assay, HsGSK3β; assay type: biochemical; conditions: for ratio HsGSK3β/TbGSK3: ratio of IC50 values
Sequence of HsGSK3β (P49841 whole entry): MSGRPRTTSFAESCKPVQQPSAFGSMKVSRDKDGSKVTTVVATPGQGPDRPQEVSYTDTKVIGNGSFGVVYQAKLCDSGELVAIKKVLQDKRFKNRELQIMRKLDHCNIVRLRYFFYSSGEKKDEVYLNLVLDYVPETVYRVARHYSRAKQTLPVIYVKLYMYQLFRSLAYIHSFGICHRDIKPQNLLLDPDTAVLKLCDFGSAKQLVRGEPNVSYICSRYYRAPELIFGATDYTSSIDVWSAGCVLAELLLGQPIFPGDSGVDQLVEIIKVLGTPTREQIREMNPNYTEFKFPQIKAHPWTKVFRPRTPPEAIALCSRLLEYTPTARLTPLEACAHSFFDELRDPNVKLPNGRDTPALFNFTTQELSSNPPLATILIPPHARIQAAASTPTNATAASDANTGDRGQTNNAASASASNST
Protocol: as §1
This implies that a difference of >0.3 in pIC50 can be considered statistically significant for this assay.

[3] = test system: bloodstream form T. b. brucei; experiment: Trypanosome proliferation assay (resazurin); assay type: cell-based; conditions: Trypanosoma brucei, 72 h, concentration required to inhibit growth in culture by 50% over 72 h
Protocol: (§2) Measurement of inhibition of the proliferation of MRC5 (human lung fibroblast) cells and T. b. brucei bloodstream stage cells was performed using a modification of the cell viability assay previously described.[33] Compounds (50 μM to 0.5 nM) were incubated with 2 × 10^3 cells/well in 0.2 mL of the appropriate culture medium (MEM with 10% fetal bovine serum for MRC5 cells) in clear 96-well plates. Plates were incubated at 37 °C in the presence of 5% CO2 for 69 h. Resazurin was then added to a final concentration of 50 μM, and plates were incubated as above for a further 4 h before being read on a BioTek flx800 fluorescent plate reader.

[4] = target: T1, TbGSK3 short (Trypanosoma brucei brucei, UniProt Q388M1); experiment: Radiometric 96-well Flashplate potency assay, TbGSK3; assay type: biochemical; conditions: for TbGSK3 potency relative to 4f: more potent than the unsubstituted phenyl compound 4f; for decrease in potency against TbGSK3: relative to cyclohexane analogue 9c
T1 sequence (Q388M1 1-352): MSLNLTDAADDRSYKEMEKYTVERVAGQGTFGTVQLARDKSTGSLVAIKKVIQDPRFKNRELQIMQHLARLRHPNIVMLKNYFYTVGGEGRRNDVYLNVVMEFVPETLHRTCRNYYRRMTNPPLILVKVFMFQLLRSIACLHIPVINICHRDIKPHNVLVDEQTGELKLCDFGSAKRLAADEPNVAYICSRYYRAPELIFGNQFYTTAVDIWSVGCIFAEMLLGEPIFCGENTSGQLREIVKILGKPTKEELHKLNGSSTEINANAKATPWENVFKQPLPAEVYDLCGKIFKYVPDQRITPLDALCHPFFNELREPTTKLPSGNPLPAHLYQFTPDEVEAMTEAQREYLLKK
Protocol: as §1
The statistical significance of the compound potency (IC50) was based on the performance of standard molecules which have been tested to a high replication. In the case of TbGSK3 short assay, the standard compound GW8510 was tested 93 times across 9 independent runs. […] The minimum significant ratio (MSR) of 0.4 was evaluated considering the following formula: [drawing 1] where SD is the standard deviation and N the number of replicate values routinely used for the assay (2 in our case).[31] This implies that a difference of >0.4 in pIC50 can be considered statistically significant for this assay.

[5] = test system: MRC5 cells; experiment: MRC5 proliferation assay (resazurin); assay type: cell-based, human; conditions: T. b. brucei versus MRC5 EC50
Protocol: as §2

Structure (SMILES): CO[C@H]1CC[C@H](NC(=O)c2n[nH]cc2NC(=O)c2c(C)nc3ccccn23)CC1 [Compound 4x, N-(3-((4-Methoxycyclohexyl)carbamoyl)-1H-pyrazol-4-yl)-2-methylimidazo[1,2-a]pyridine-3-carboxamide]
- selectivity over MRC5 cells [5]: 12 fold

Structure (SMILES): COc1cccc(OC)c1C(=O)Nc1c[nH]nc1C(=O)NC1CC1 [Compound 9a, N-Cyclopropyl-4-(2,6-dimethoxybenzamido)-1H-pyrazole-3-carboxamide]
- ratio HsCDK2/TbGSK3 [1]: >830

Structure (SMILES): COc1cccc(OC)c1C(=O)Nc1c[nH]nc1C(=O)NC1CCCCC1 [Compound 9c, N-Cyclohexyl-4-(2,6-dimethoxybenzamido)-1H-pyrazole-3-carboxamide]
- selectivity over MRC5 cells [5]: > 7 fold

Structure (SMILES): COc1cccc(OC)c1C(=O)Nc1c[nH]nc1C(=O)NC1CCCCCC1 [Compound 9d, N-Cycloheptyl-4-(2,6-dimethoxybenzamido)-1H-pyrazole-3-carboxamide]
- selectivity over MRC5 cells [5]: > 7 fold

Structure (SMILES): COc1cccc(OC)c1C(=O)Nc1c[nH]nc1C(=O)Nc1ccccc1 [Compound 9k, 4-(2,6-Dimethoxybenzamido)-N-phenyl-1H-pyrazole-3-carboxamide]
- decrease in potency against TbGSK3 [4]: 6 fold

Structure (SMILES): COc1cccc(OC)c1C(=O)Nc1c[nH]nc1C(=O)Nc1ccncc1 [Compound 9l, 4-(2,6-Dimethoxybenzamido)-N-(pyridin-4-yl)-1H-pyrazole-3-carboxamide]
- decrease in potency against TbGSK3 [4]: 6 fold

Structure (SMILES): COc1cccc(OC)c1C(=O)Nc1c[nH]nc1C(=O)Nc1ccccn1 [Compound 9m, 4-(2,6-Dimethoxybenzamido)-N-(pyridin-2-yl)-1H-pyrazole-3-carboxamide]
- loss of activity against TbGSK3 ([4]; 2-pyridine analogue much less active, comparator not stated clearly (9c or 9k/9l)): 50 fold

Structure (SMILES): CCCCCNC(=O)c1n[nH]cc1NC(=O)c1c(OC)cccc1OC [Compound 9s, 4-(2,6-Dimethoxybenzamido)-N-pentyl-1H-pyrazole-3-carboxamide]
- selectivity over MRC5 cells [5]: > 7 fold
- ratio HsGSK3β/TbGSK3 [2]: 100

Structure (SMILES): COc1cccc(OC)c1C(=O)Nc1c[nH]nc1C(=O)NCCCOC(C)C [Compound 9t, 4-(2,6-Dimethoxybenzamido)-N-(3-isopropoxypropyl)-1H-pyrazole-3-carboxamide]
- selectivity over MRC5 cells [5]: > 7 fold

Structure (SMILES): O=C1Nc2ccc3ncsc3c2/C1=C/Nc1ccc(S(=O)(=O)Nc2ccccn2)cc1 [GW8510, reference compound]
- average pIC50 HsGSK3 assay ([2]; standard compound tested 47 times across 5 independent runs, SD 0.21): 8.10
- average pIC50 TbGSK3 short assay ([4]; standard compound tested 93 times across 9 independent runs, SD 0.23): 8.26

More lines, main results first:

- ratio HsCDK2/TbGSK3 [1]: <0.7
Structure (SMILES): CO[C@H]1CC[C@H](NC(=O)c2n[nH]cc2NC(=O)c2ccccc2F)CC1 [Compound 4g, 4-(2-Fluorobenzamido)-N-(4-methoxycyclohexyl)-1H-pyrazole-3-carboxamide]

- ratio HsGSK3β/TbGSK3 [2]: <0.72
Structure (SMILES): CO[C@H]1CC[C@H](NC(=O)c2n[nH]cc2NC(=O)c2ccccc2C(F)(F)F)CC1 [Compound 4h, N-(4-Methoxycyclohexyl)-4-(2-(trifluoromethyl)benzamido)-1H-pyrazole-3-carboxamide]

- ratio HsGSK3β/TbGSK3 [2]: <3.3
- TbGSK3 potency relative to 4f [4]: approximately 10 fold
Structure (SMILES): COc1ccccc1C(=O)Nc1c[nH]nc1C(=O)N[C@H]1CC[C@H](OC)CC1 [Compound 4j, 4-(2-Methoxybenzamido)-N-(4-methoxycyclohexyl)-1H-pyrazole-3-carboxamide]
- EC50 [3]: < 1 µM

- IC50 [1]: > 10 µM
- ratio HsCDK2/TbGSK3 [1]: >910
Structure (SMILES): CO[C@H]1CC[C@H](NC(=O)c2n[nH]cc2NC(=O)c2ccccc2Nc2ccccc2)CC1 [Compound 4k, N-(4-Methoxycyclohexyl)-4-(2-(phenylamino)benzamido)-1H-pyrazole-3-carboxamide]

- IC50 [1]: > 10 µM
- ratio HsCDK2/TbGSK3 [1]: >150
Structure (SMILES): CO[C@H]1CC[C@H](NC(=O)c2n[nH]cc2NC(=O)c2ccccc2Nc2cccc(C)c2C)CC1 [Compound 4l, 4-(2-((2,3-Dimethylphenyl)amino)benzamido)-N-(4-methoxycyclohexyl)-1H-pyrazole-3-carboxamide]

- selectivity over HsCDK2 ([1]; TbGSK3 versus HsCDK2, running text): > 1000 fold
- selectivity over HsGSK3 ([2]; TbGSK3 versus HsGSK3, running text): > 10 fold
- TbGSK3 potency relative to 4f [4]: approximately 10 fold
Structure (SMILES): COc1cc(OC)c(C(=O)Nc2c[nH]nc2C(=O)N[C@H]2CC[C@H](OC)CC2)c(OC)c1 [Compound 4n, N-(4-Methoxycyclohexyl)-4-(2,4,6-trimethoxybenzamido)-1H-pyrazole-3-carboxamide]
- selectivity over MRC5 cells [5]: > 9 fold

- ratio HsGSK3β/TbGSK3 [2]: <0.09
Structure (SMILES): CO[C@H]1CC[C@H](NC(=O)c2n[nH]cc2NC(=O)c2ccc(F)cc2F)CC1 [Compound 4o, 4-(2,4-Difluorobenzamido)-N-(4-methoxycyclohexyl)-1H-pyrazole-3-carboxamide]

- ratio HsGSK3β/TbGSK3 [2]: <0.21
Structure (SMILES): CO[C@H]1CC[C@H](NC(=O)c2n[nH]cc2NC(=O)c2cc(F)cc(F)c2)CC1 [Compound 4p, 4-(3,5-Difluorobenzamido)-N-(4-methoxycyclohexyl)-1H-pyrazole-3-carboxamide]

- ratio HsGSK3β/TbGSK3 [2]: <0.08
Structure (SMILES): CO[C@H]1CC[C@H](NC(=O)c2n[nH]cc2NC(=O)c2cc(Cl)cc(Cl)c2)CC1 [Compound 4q, 4-(3,5-Dichlorobenzamido)-N-(4-methoxycyclohexyl)-1H-pyrazole-3-carboxamide]

- ratio HsGSK3β/TbGSK3 [2]: <0.31
Structure (SMILES): CO[C@H]1CC[C@H](NC(=O)c2n[nH]cc2NC(=O)c2ccc(OC(F)F)cc2)CC1 [Compound 4r, 4-(4-(Difluoromethoxy)benzamido)-N-(4-methoxycyclohexyl)-1H-pyrazole-3-carboxamide]

- ratio HsGSK3β/TbGSK3 [2]: <0.26
Structure (SMILES): CO[C@H]1CC[C@H](NC(=O)c2n[nH]cc2NC(=O)c2ccc(N3CCCC3)cc2)CC1 [Compound 4s, N-(4-Methoxycyclohexyl)-4-(4-(pyrrolidin-1-yl)benzamido)-1H-pyrazole-3-carboxamide]
- selectivity over MRC5 cells [5]: > 19 fold

- ratio HsGSK3β/TbGSK3 [2]: <0.071
Structure (SMILES): CO[C@H]1CC[C@H](NC(=O)c2n[nH]cc2NC(=O)c2ccc(N3CCN(C)CC3)cc2)CC1 [Compound 4t, N-(4-Methoxycyclohexyl)-4-(4-(4-methylpiperazin-1-yl)benzamido)-1H-pyrazole-3-carboxamide]

- ratio HsGSK3β/TbGSK3 [2]: <0.38
Structure (SMILES): CO[C@H]1CC[C@H](NC(=O)c2n[nH]cc2NC(=O)c2cc3ccccc3o2)CC1 [Compound 4u, 4-(Benzofuran-2-carboxamido)-N-(4-methoxycyclohexyl)-1H-pyrazole-3-carboxamide]

- ratio HsGSK3β/TbGSK3 [2]: <0.080
Structure (SMILES): CO[C@H]1CC[C@H](NC(=O)c2n[nH]cc2NC(=O)c2cc3ccccn3n2)CC1 [Compound 4v, N-(3-((4-Methoxycyclohexyl)carbamoyl)-1H-pyrazol-4-yl)pyrazolo[1,5-a]pyridine-2-carboxamide]

- ratio HsGSK3β/TbGSK3 [2]: <0.053
Structure (SMILES): CO[C@H]1CC[C@H](NC(=O)c2n[nH]cc2NC(=O)c2cnc3ccccn23)CC1 [Compound 4w, N-(3-((4-Methoxycyclohexyl)carbamoyl)-1H-pyrazol-4-yl)imidazo[1,2-a]pyridine-3-carboxamide]

- ratio HsGSK3β/TbGSK3 [2]: <2.5
Structure (SMILES): COc1cccc(OC)c1C(=O)Nc1c[nH]nc1C(=O)N[C@H]1CC[C@H](OC)CC1 [Compound 9x]

Source: article PMC4175002, “The Design and Synthesis of Potent and Selective Inhibitors of Trypanosoma brucei Glycogen Synthase Kinase 3 for the Treatment of Human African Trypanosomiasis” (Journal of Medicinal Chemistry, 2014)
